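Assay format: 96-well plates, 48-hour exposure. The concentration for 50% growth inhibition is given as GI50. TGI: concentration producing complete growth inhibition.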
What was measured:
Assay in all cases: DTP human tumour cell line panel, 48 h
RXF 393 renal = test system: RXF 393 renal
HCT-15 colon = test system: HCT-15 colon
UACC-257 melanoma = test system: UACC-257 melanoma
SK-OV-3 ovarian = test system: SK-OV-3 ovarian
ACHN renal = test system: ACHN renal
SR leukemia = test system: SR leukemia
BT-549 breast = test system: BT-549 breast
DU-145 prostate = test system: DU-145 prostate
MDA-MB-231 breast = test system: MDA-MB-231 breast
MCF7 breast = test system: MCF7 breast

Compound | TGI (RXF 393 renal) [µM] | TGI (HCT-15 colon) [µM] | TGI (UACC-257 melanoma) [µM] | TGI (SK-OV-3 ovarian) [µM] | TGI (ACHN renal) [µM] | TGI (SR leukemia) [µM] | TGI (BT-549 breast) [µM] | TGI (DU-145 prostate) [µM] | TGI (MDA-MB-231 breast) [µM] | GI50 (RXF 393 renal) [µM] | GI50 (BT-549 breast) [µM] | GI50 (MCF7 breast) [µM] | TGI (MCF7 breast) [µM] | GI50 (HCT-15 colon) [µM] | GI50 (DU-145 prostate) [µM] | GI50 (SK-OV-3 ovarian) [µM] | GI50 (ACHN renal) [µM] | GI50 (MDA-MB-231 breast) [µM]
Cc1cc2c(C)nn(Cc3ccc(Cl)cc3)c2c(C#N)c1C | > 100 | > 100 | > 100 | > 100 | > 100 | > 100 | – | – | – | – | – | – | – | – | – | – | – | –
C=C(c1ccccc1)[C@@]1(O)CC[C@@H]1N(CC#N)Cc1ccccc1 | 34.6 | 34.6 | 34 | > 100 | 41.4 | > 69.9 | 37.1 | > 100 | 27.5 | – | – | – | – | – | – | – | – | –
N#CC1CC2(CCN1C(=O)c1ccccc1)OCCO2 (stereo unspecified) | > 100 | > 100 | > 100 | > 100 | > 100 | > 100 | – | – | – | – | – | – | – | – | – | – | – | –
Clc1ccc(C(n2cc(Br)cn2)n2cc(Br)cn2)cc1 | 32.5 | 33.2 | 29.3 | 60.9 | 27.6 | – | – | – | – | – | – | – | – | – | – | – | – | –
CC(C)OP(=O)(NC(=S)c1ccccc1)OC(C)C | – | > 100 | > 100 | > 100 | > 100 | – | – | – | – | – | – | – | – | – | – | – | – | –
COc1cc2c(cc1OC)/C(=C\c1ccccc1N)C(=O)OC2 | 12.9 | 27.2 | 34.3 | 55.7 | 34.7 | – | – | – | – | – | – | – | – | – | – | – | – | –
Cn1cc(C(=O)C[n+]2ccccc2)c2ccccc21 | – | > 100 | > 100 | – | > 100 | > 100 | – | – | – | – | – | – | – | – | – | – | – | –
CN(C)c1ccc(/C=c2\sc3nc4ccccc4n3c2=O)cc1 | > 100 | > 100 | > 100 | – | > 100 | – | – | – | – | – | – | – | – | – | – | – | – | –
O=C1C(=Cc2c(O)cc(O)cc2O)C(=O)c2ccccc21 | 27.9 | > 77 | > 58.1 | > 100 | > 57.6 | 50.7 | – | 38.5 | – | – | – | – | – | – | – | – | – | –
O=c1cccccc1[O-].O=c1cccccc1[O-].O=c1cccccc1[O-].[La+3] | 31.9 | > 100 | 47.9 | 86.9 | > 100 | – | – | – | – | – | – | – | – | – | – | – | – | –
O=C1c2ccccc2-c2c1c1ccccc1c(=O)n2CCCn1ccnc1 | > 100 | > 100 | – | > 100 | 3.43 | – | > 100 | 6.94 | 5.8 | 6.15 | 3.36 | 0.902 | > 100 | 1.9 | 1.41 | 6.68 | 0.885 | 2.08
CC1OC(n2cc(F)c(=O)[nH]c2=O)C=CC1=O (stereo unspecified) | 30.4 | 46.1 | 32.2 | 95.9 | 31.9 | 55.8 | – | – | – | – | – | – | – | – | – | – | – | –
CC(=O)OCC1OC(n2c(-c3ccc(C)cc3)cc(-c3ccccc3)c(C#N)c2=O)C(OC(C)=O)C(OC(C)=O)C1OC(C)=O (stereo unspecified) | – | > 100 | > 100 | > 100 | > 100 | – | – | – | – | – | – | – | – | – | – | – | – | –
CC(C)(c1ccccc1)c1ccc(OC#N)cc1 | > 100 | 31.3 | > 100 | > 100 | > 100 | 43.1 | – | – | – | – | – | – | – | – | – | – | – | –
COC(=O)/C=C/c1cc2c(cc1-c1c(C(=O)O)cc(OC)c(OC)c1OC)OCO2 | – | > 10 | > 10 | > 10 | > 10 | > 10 | > 10 | > 10 | > 10 | – | – | – | > 10 | – | – | – | – | –

— PubChem BioAssay (NCI)
